Experimental data from patent US20250177581A1, “NTSR1-TARGETED RADIOPHARMACEUTICALS AND DNA DAMAGE RESPONSE INHIBITOR COMBINATION THERAPY” (Fusion Pharmaceuticals Inc., priority 2022, published 2025).

Test system: CT-26-mNTSR1 tumor
Experiment: Combination of [^225Ac]-Compound A and Olaparib in CT-26-mNTSR1 tumor bearing mice, tumor growth
Assay type: in vivo, mouse
Details: olaparib monotherapy at 50 mg/kg
Procedure: An in vivo study was conducted to test the effect of [^225Ac]-Compound A (as described in Example 3) in combination with Olaparib in CT-26-mNTSR1 tumor bearing mice.

O=C(c1cc(Cc2n[nH]c(=O)c3ccccc23)ccc1F)N1CCN(C(=O)C2CC2)CC1 [olaparib]
reduction in tumor growth compared to control mice: slight or neglible reduction in tumor growth
